Laboratory results as given in ChEMBL document CHEMBL1201862, “PubChem BioAssay data set” (2004).
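Compound exposure: 48 hours, 5 concentrations, 96-well plates. GI50 marks 50% less growth.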 Calls of active or inactive are those of the source. No stated cut-off is given here; in the data, active = GI50 up to about 1.1 µM and inactive = higher.

Columns and labels:
Test in all cases: NCI tumour cell line growth inhibition, 48 h
A549 = tested on: A549
EKVX = tested on: EKVX
CCRF-CEM = tested on: CCRF-CEM
HT-29 = tested on: HT-29
SN12C = tested on: SN12C
SK-MEL-2 = tested on: SK-MEL-2
HOP-62 = tested on: HOP-62
MDA-MB-435 = tested on: MDA-MB-435
M14 = tested on: M14
NCI-H460 = tested on: NCI-H460
Malme-3M = tested on: Malme-3M
HCT-116 = tested on: HCT-116
SF-539 = tested on: SF-539
SR = tested on: SR
K562 = tested on: K562
SK-OV-3 = tested on: SK-OV-3
RXF 393 = tested on: RXF 393
UACC-62 = tested on: UACC-62
Hs-578T = tested on: Hs-578T

Measured: GI50

Cc1c(CN)c(C)c(CN)c(C)c1CN
inactive: A549 > 100 µM | EKVX > 100 µM | CCRF-CEM > 100 µM | HT-29 > 100 µM | SN12C > 100 µM | SK-MEL-2 > 100 µM | HOP-62 81.5 µM | MDA-MB-435 > 100 µM | M14 > 100 µM | NCI-H460 > 100 µM | Malme-3M > 100 µM | HCT-116 > 100 µM | SF-539 > 100 µM | SR > 100 µM | K562 > 100 µM

N/C(=N\n1c(=S)[nH]c2ccccc2c1=O)Nn1c(=S)[nH]c2ccccc2c1=O
inactive: A549 > 100 µM | EKVX 67.6 µM | CCRF-CEM 18.8 µM | SK-MEL-2 46.6 µM | HOP-62 36.4 µM | SK-OV-3 > 100 µM | MDA-MB-435 36.9 µM | M14 11.4 µM | NCI-H460 44.1 µM | Malme-3M 20.5 µM | HCT-116 16.8 µM | SF-539 18.9 µM | SR 20.3 µM | K562 26.6 µM | RXF 393 35.3 µM | UACC-62 75 µM

CCOC(=O)C1C(=O)CC(C)(O)C(C(=O)OCC)C1c1ccc(O)c(OC)c1 (stereo not drawn)
inactive: A549 > 100 µM | EKVX > 100 µM | CCRF-CEM > 100 µM | HT-29 > 100 µM | SN12C > 100 µM | SK-MEL-2 > 100 µM | HOP-62 > 100 µM | MDA-MB-435 > 100 µM | NCI-H460 > 100 µM | Malme-3M > 100 µM | HCT-116 > 100 µM | SR > 100 µM | K562 > 100 µM | RXF 393 > 100 µM | UACC-62 > 100 µM

Cc1csc(N/C=C2\C(=O)Oc3ccccc3C2=O)n1
inactive: A549 38.7 µM | EKVX 21.3 µM | Hs-578T 20.1 µM | CCRF-CEM 35.8 µM | HT-29 36 µM | SK-MEL-2 13.4 µM | SK-OV-3 7.05 µM | MDA-MB-435 24.9 µM | M14 35.8 µM | Malme-3M 20.5 µM | HCT-116 28.4 µM | SF-539 26.9 µM | K562 81.7 µM | UACC-62 24.6 µM

CCN(C(=O)N[C@H](C(=O)N[C@@H](CSC)C(=O)N[C@@H](C)C(=O)OC)C(C)C)c1ccccc1
inactive: A549 23.6 µM | EKVX 13.5 µM | CCRF-CEM 2.94 µM | HT-29 13.2 µM | SN12C 17.9 µM | SK-MEL-2 20.3 µM | HOP-62 19.8 µM | SK-OV-3 15 µM | MDA-MB-435 14.7 µM | M14 14.2 µM | NCI-H460 15.8 µM | Malme-3M 12.8 µM | HCT-116 16.7 µM | SF-539 19.6 µM | SR 3.83 µM | K562 13.1 µM | RXF 393 17.7 µM | UACC-62 13.8 µM

O=C(NCCN1CCOCC1)c1ccc(I)cc1
inactive: A549 > 100 µM | EKVX > 100 µM | Hs-578T > 100 µM | CCRF-CEM > 100 µM | HT-29 > 100 µM | SN12C > 100 µM | SK-OV-3 > 100 µM | M14 > 100 µM | NCI-H460 > 100 µM | SF-539 > 100 µM | SR > 100 µM | K562 > 100 µM | UACC-62 > 100 µM

CCOC(=O)C1(C#N)CC1
inactive: A549 > 100 µM | EKVX > 100 µM | Hs-578T > 100 µM | CCRF-CEM > 100 µM | HT-29 > 100 µM | SN12C > 100 µM | SK-MEL-2 > 100 µM | HOP-62 > 100 µM | SK-OV-3 > 100 µM | M14 > 100 µM | NCI-H460 > 100 µM | Malme-3M > 100 µM | HCT-116 > 100 µM | SF-539 > 100 µM | SR > 100 µM | K562 > 100 µM | RXF 393 7.94 µM | UACC-62 > 100 µM

Oc1ccccc1/C=N/c1ccccc1/N=C/c1ccccc1O
inactive: A549 > 100 µM | EKVX > 100 µM | CCRF-CEM 8.3 µM | HT-29 > 100 µM | SN12C > 100 µM | HOP-62 > 100 µM | SK-OV-3 > 100 µM | M14 > 100 µM | NCI-H460 62.8 µM | Malme-3M > 100 µM | HCT-116 > 100 µM | SF-539 71.3 µM | SR 19.5 µM | K562 21.5 µM

COc1ccc(/C=N/n2c(Cc3ccc(Cl)cc3)n[nH]c2=O)cc1
inactive: A549 43.6 µM | EKVX 30.1 µM | CCRF-CEM > 100 µM | HT-29 13.6 µM | SN12C 59.7 µM | SK-MEL-2 21.6 µM | HOP-62 15.2 µM | SK-OV-3 36 µM | MDA-MB-435 > 100 µM | M14 45.7 µM | NCI-H460 > 100 µM | HCT-116 24.9 µM | SF-539 22.1 µM | SR 37.3 µM | K562 > 100 µM | RXF 393 16.8 µM | UACC-62 52.2 µM

N#CC(C#N)/N=N/c1ccc(-c2nc3ccccc3s2)cc1
inactive: EKVX 7.03 µM | HT-29 6.64 µM | SN12C 2.78 µM | SK-MEL-2 4.73 µM | MDA-MB-435 5.6 µM | M14 8.73 µM | Malme-3M 3.15 µM | HCT-116 3.78 µM | SF-539 9.33 µM | SR 3.23 µM | RXF 393 4.23 µM

OCC1OC(c2cccc3cc(O)c(O)cc23)CC1O (stereo not drawn)
inactive: A549 > 100 µM | EKVX 45.4 µM | Hs-578T > 100 µM | HT-29 > 100 µM | SN12C > 100 µM | SK-MEL-2 > 100 µM | HOP-62 > 100 µM | SK-OV-3 > 100 µM | MDA-MB-435 > 100 µM | M14 > 100 µM | NCI-H460 80.7 µM | HCT-116 > 100 µM | SF-539 > 100 µM | K562 > 100 µM | UACC-62 > 100 µM

CCc1c(C)c(C#N)c(=S)n(C2OC(CO)C(O)C(O)C2O)c1C (stereo not drawn)
inactive: A549 > 100 µM | EKVX > 100 µM | CCRF-CEM > 100 µM | HT-29 > 100 µM | SN12C > 100 µM | SK-MEL-2 > 100 µM | HOP-62 > 100 µM | SK-OV-3 > 100 µM | MDA-MB-435 > 100 µM | M14 > 100 µM | NCI-H460 > 100 µM | Malme-3M > 100 µM | HCT-116 > 100 µM | SF-539 > 100 µM | SR > 100 µM | K562 > 100 µM | RXF 393 > 100 µM | UACC-62 > 100 µM

O=C(c1cccc2cc(O)ccc12)c1cn(CCN2CCOCC2)c2ccccc12
inactive: EKVX 28.1 µM | CCRF-CEM 4.06 µM | HT-29 20.7 µM | SN12C 31.8 µM | SK-MEL-2 11 µM | HOP-62 22 µM | M14 20 µM | Malme-3M 22.8 µM | HCT-116 20 µM | SF-539 > 100 µM | SR 50.2 µM | K562 60.1 µM | RXF 393 21.8 µM | UACC-62 17.7 µM
